Patent US6552208B1, “Fractionation process” (Karlshamns AB, priority 1998, dated 2003)

System: Normal human dermal fibroblasts
Assay: UV radiation test in vitro, UV-B
Format: cell-based
Conditions: fibroblasts exposed to test substance 48 hours before UV irradiation; UV dose inducing 50% of cell death
Procedure: The fractionated low-erucic rapeseed oil of Example 1, the canola oil fraction, was tested in vitro for its ability to decrease the damage to cells exposed to free radicals generated by exposure to UV radiation. Normal human dermal fibroblasts were exposed to the test substance at different concentrations 48 hours before UV irradiation. DL-α-tocopheryl acetate was used as a positive control in the study. The UV dose inducing 50% of cell death was determined after the treatment by exposing the cell cultures to UV-A and UV-B radiation at different intensities.

With `CC(=O)Oc1c(C)c(C)c2c(c1C)CC[C@@](C)(CCC[C@H](C)CCC[C@H](C)CCCC(C)C)O2` (racemic) [DL-α-tocopheryl acetate] the “protection against UV-B radiation” value was “neither the fractionated rapeseed oil of Example 1 or the DL-α-tocopheryl acetate gave any protection”.
